Test results reported in patent US9885060B2, “Alkene production” (Evonik Degussa GmbH, priority 2015, dated 2018).

System: OleT
Experiment: Inhibitory effect of gluconic acid on OleT productivity
Assay type: biochemical
Conditions: 10 mM gluconic acid
Protocol: After 24 h reaction time, product concentrations of 1.16 mM (0.27 g L-1) 1-heptadecene and 1 mM (0.21 g L-1) 1-pentadecene were obtained but could not be further enhanced. […] Compared to a previously published whole cell reaction system, this FDH-driven system allows 6 times higher product titer and a 21 times higher volumetric productivity with 42.5 mg L-1 h-1 of α-olefin after 8 h reaction time vs: 98 mg L-1 in 48 h) (Table 2).

`O=C(O)[C@H](O)[C@@H](O)[C@H](O)[C@H](O)CO` [gluconic acid] was tested. Which “reduction of OleT productivity” value did it give?
Its value is 28%.
